According to patent EP0926242A1, “GLIOTOXIN DERIVATIVES AND ANTICANCER AGENT COMPRISING THE SAME” (priority 1996, dated 1998):
Values after ≈ are worked out from the molar mass of the structure shown. Like-named read-outs stand apart in the source and are kept apart here.

Assays:
[1] = test system: human carcinoma of the colon cells HCT-116; assay: Anticancer effect in vivo against HCT 116 (Example 9 B); design: species or system mouse; conditions: 5 [mg/kg]×3 (i.p.), 7,11,15th days, Balb/c nu/nu mice
Description: (§1) • (A) Evaluationin vivo using mouse carcinoma of the colon cells colon 26 CDFI mice (female : 4 weks age) were bought, and colon 26 subcultured in the subcutaneous tissue of the mouse was taken out, and cut into small pieces by a scissors. The cancer cells were transplanted into subcutaneous tisue of CDFI mice by a trucker. The day was assigned 0 day, and the tumor was measured by a slide caliper after 7 days. The volume of the tumor was calculated, and divided into groups (each group : n = 4). The text compound was dissolved in dimethylsulfoxide, and diluted with 5 % Tween 80- saline aqueous solution. […] The administration was carried out after 7 days, after 11 days and after 15 days or after 7 days and after 8 days from the transplantation at a rate of once per one day. 21st day from the transplantation, the volume of tumor was measured and the volume of tumor and the inhibition against tumor multiplication rate (I.R.) were calculated. The volume of tumor was calculated by the following formula. (Tumore Volume [mm)^3 (]= Minor Axis [mm])^2 × Major Axis [mm] × (1/2) [formula] • The inhibition against tumor multiplication rate (I.R.) was calculated by the following formula. I.R. [%] = {1- (Average Tumor Volume of Administration Group / Average Tumor Volume of Control Group)) × 100 [formula] • (B) Evaluation in vivo using human carcinoma of the colon cells HCT-116 Balb/c nu/nu mice (female : 5 weks age) were bought, and HCT-116 (Dainippon Seiyaku) subcultured in the subcutaneous tissue of the mouse was taken out, and cut into small pieces by a scissors. The cancer cells were transplanted into subcutaneous tissue of […] mice by a trucker. The day was assigned 0 day, and the tumor was measured by a slide caliper after 7 days. The volume of the tumor was calculated, and divided into groups (each group : n = 2). The text compound was dissolved in dimethylsulfoxide, and diluted with 5 % Tween 80- saline aqueous solution. […] The administration was carried out after 7 days, after 11 days and after 15 days from the transplantation at a rate of once per one day. 21st day from the transplantation, the volume of tumor was measured and the volume of tumor and the inhibition against tumor multiplication rate (I.R.) were calculated by the above formulas.

[2] = test system: Human carcinoma of the colon cell strain HCT-116; assay: Tertiary culture using test human cancer, killed cells by MTT method; format: cell-based; conditions: incubated 3 days
Description: Tertiary cultures were carried out using a human carcinoma of the colon tissue in stage 2b. The tertiary cultures were carried out according to the reported method (Int.J.Cancer Res., 82, 607-612 (1991), Gan to Kagakuryoho, 18, 239-243 (1991), Gan to Kagakuryoho, 19, 743-748 (1992)). The extracted tissue of carninoma of the colon was cut into square pieces having a side of about 2 mm, and incubated in a RPMI- 1640 medium containing 10 % fetal calf serum under 5 % CO2 at 37 °C for 3 days. Existing anticancer agents or acetylgliotoxin were diluted and added, and further incubated for 3 days. Then, the rate of killed cells was determined by the MTT method. The tertiary cultures using the test human cancer were carried out as follows: Human carcinoma of the colon cell strain HCT-116 was transplanted into the subcutaneous tissue of a nude mouse (Balb nu/nu) to induce tumor. The cancer tissue was extracted from the tumor-induced portion, and cut into square pieces having a side of 2 mm. The evaluation of the existing anticancer agents and acetylyliotoxin was earried out according to the aforementioned method.

[3] = test system: mouse carcinoma of the colon cells colon 26; assay: Evaluation of cytotoxity of synthesized derivatives by the MTT method (Example 8); format: cell-based; conditions: for IC50: Mus musculus
Description: (§2) Antitumor activity of the synthesized derivatives against various cancer cells was measured by the MTT method. The cancer cells used were mouse carcinoma of the colon cells colon 26 (Gan Kenkyu-sho, Gan Kenkyu-kai) and mouse leukemia cells P388 (Dai-Nippon Seiyaku), and the culture medium contained 10 % fetal calf serum. Each cells were placed in each well of 96 well microplate n an amount of […]/50 µL/well and 50 µL of a test compound aqueous solution in each concentration was added. After incubating at 37 °C for 3 days, the number of survival cells was measured by the MTT method, and a dose-reaction curve was made. Thereby, the concentration of each test compound inhibiting multiplication at a rate of 50 % (IC50) was calculated.

[4] = test system: mouse leukemia cells P388; assay: as above; format: cell-based; conditions: for IC50: Mus musculus, read-out: P388 IC50[ng/mL]
Description: as §2

[5] = test system: mouse carcinoma of the colon cells colon 26; assay: Anticancer effect in vivo against colon 26 (Example 9 A); conditions: CDFI mice
Description: as §1

[6] = 72 h, colon 26, 3 days, MTT, read-out: colon 26 IC 50
[7] = 2.5[mg/kg]×3 (i.p.), 7,11,15th days
[8] = 5 [mg/kg]×3 (i.p.), 7,11,15th days
[9] = 10 [mg/kg]×2 (i.p.), 7,8th days
[10] = 10 [mg/kg]×2 (i.v.), 7, 14th days

In the case of `[NH2][Pt]([NH2])([Cl])[Cl]` [CDDP, Cisplatin, reference compound], the “I.R. (21st day)” value [1] is reported as 15.6%, the I.R.Max [1] is reported as 47.5% and the “I. R. (%)” value ([2]; conc. 25 ug/mL) is reported as 6%.

For `CC(=O)O[C@H]1C(=O)[C@@]2(C)[C@H]([C@H](OC(=O)c3ccccc3)[C@]3(O)C[C@H](OC(=O)[C@H](O)[C@@H](NC(=O)c4ccccc4)c4ccccc4)C(C)=C1C3(C)C)[C@]1(OC(C)=O)CO[C@@H]1C[C@@H]2O` [T A X O L, Taxol], the “I. R. (%)” value ([2]; conc. 100 ug/mL) was 19%.

In the case of `CC(=O)Oc1cccc2c1N1C(=O)[C@]3(CO)SS[C@]1(C2)C(=O)N3C` [Compound of Example 5, (3 S, 10aR)―6―acetoxy―2,3―dihydro―3―(hydroxymethyl)― 2―methyl―10H―3,10a―epidithiopyrazino[1,2―a]indole―1, 4―dione], the IC50 [3, 6] is reported as 74 ng/mL (≈ 0.202 µM) and the IC50 ([4]; 72 h, P388, 3 days, MTT) is reported as 13 ng/mL (≈ 0.0355 µM).

In the case of `CN1C(=O)[C@]23CC4=CC=C[C@H](O)[C@H]4N2C(=O)[C@@]1(CO)SS3` [Gliotoxin, gliotoxin], the “I. R. (%)” value ([2]; conc. 12.5 ug/mL) is reported as 28% and the “I. R. (%)” value ([2]; conc. 25 ug/mL) is reported as 66%.

`CC[C@]1(O)C[C@@H]2CN(CCc3c([nH]c4ccccc34)[C@@](C(=O)OC)(c3cc4c(cc3OC)N(C)[C@H]3[C@@](O)(C(=O)OC)[C@H](OC(C)=O)[C@]5(CC)C=CCN6CC[C@]43[C@@H]65)C2)C1` [Vinblastine] was tested, and the “I. R. (%)” value ([2]; conc. 100 ug/mL) was 20%.

`CN1C(=O)[C@]23Cc4cccc(O)c4N2C(=O)[C@]1(CO)SS3` [Compound of Example 4, (3S, 10aR)―2,3―dihydro―6―hydroxy―3―(hydroxymethyl)― 2―methyl―10H―3,10a―epidithiopyrazino[1,2―a]indole― 1,4―dione] was tested, and the “I.R. (21st day)” value [1] was 63.8%, the I.R.Max [1] was 66.5% and the IC50 ([3]; Colon 26, 72 h, read-out: colon 26 IC 50 [ng/mL]) was 110 ng/mL (≈ 0.339 µM). The IC50 ([4]; P388, 72 h) was 21 ng/mL (≈ 0.0647 µM), the “I.R. (21st day)” value [5, 7] was 40.1% and the I.R.Max [5, 7] was 54.5%. The “I.R. (21st day)” value [5, 8] was 52.9%, the I.R.Max [5, 8] was 58.9% and the “I.R. (21st day)” value [5, 9] was 43.5%. It also gave an I.R.Max [5, 9] of 79.8%.

`COc1cccc2c1C(=O)c1c(O)c3c(c(O)c1C2=O)C[C@@](O)(C(=O)CO)C[C@@H]3O[C@H]1C[C@H](N)[C@H](O)[C@H](C)O1` [Adriamycin, reference compound] was tested, and the “I. R. (%)” value ([2]; conc. 6 ug/mL) was 0%, the “I.R. (21st day)” value [5, 10] was 38.9% and the I.R.Max [5, 10] was 38.9%.

For `CN1C(=O)[C@]23Cc4ccccc4N2C(=O)[C@]1(CO)SS3` [Compound of Example 3, (3S, 10aR)―2,3-dihydro―3―(hydroxymethyl)―2― methyl―10H―3,10a―epidithiopyrazino[1,2―a]indole― 1,4―dione], the IC50 [3, 6] was 58 ng/mL (≈ 0.188 µM), the IC50 ([4]; 72 h, P388, 3 days, MTT) was 3.2 ng/mL (≈ 0.0104 µM) and the “I.R. (21st day)” value [5, 7] was 35.2%. For the same molecule, the I.R.Max [5, 7] was 35.3%, the “I.R. (21st day)” value [5, 8] was 43.7% and the I.R.Max [5, 8] was 51.6%.

With `COC(=O)COc1cccc2c1N1C(=O)[C@]3(CO)SS[C@]1(C2)C(=O)N3C` [Compound of Example 7, (3S, 10aR)―2,3―dihydro―3― (hydroxymethyl)―6―[(methoxycarbonyl)methyloxy]―2― methyl―10H―3,10a―epidiopyrazino[1,2―a]indole―1,4― dione] the “colon 26 IC 50” value ([3]; colon 26, 3 days, MTT) was 0.082 µg/mL.

For `CN1C(=O)[C@]23Cc4cccc(OCC#N)c4N2C(=O)[C@]1(CO)SS3` [Compound of Example 6, (3S, 10aR)―6―(cyanomethoxy)―2,3―dihydro―3― (hydroxymethyl)―2―methyl―10H-3,10a―a― epidithiopyrazino[1,2―a]indole―1,4―dione], the “colon 26 IC 50” value ([3]; colon 26, 3 days, MTT) was 0.07 µg/mL and the “P388 IC50[ng/mL]” value ([4]; P388, 3 days, MTT) was 5.8 ng/mL.

`CO[C@@]12[C@H](COC(N)=O)C3=C(C(=O)C(C)=C(N)C3=O)N1C[C@@H]1N[C@@H]12` [M M C, Mitomycin C] was tested, and the “I. R. (%)” value ([2]; conc. 15 ug/mL) was 34%.

With `O=c1[nH]cc(F)c(=O)[nH]1` [5-F U, 5-Fluorouracil] the “I. R. (%)” value ([2]; conc. 500 ug/mL) was 38%.
